Structures can show the parent of a compound that is named as a salt.
Tests used:
amyloid β protein = target: T1, amyloid β protein (Homo sapiens, UniProt P05067); assay: β structure recognition of amyloid β protein (thioflavin T fluorescence); type: binding; settings: for β Structure recognition (%) / β structure recognition (%) at 1 µM: test compound 1 μM, thioflavin T 3 μM, average of duplicated experiments; for β structure recognition (%) at 1 µM: read-out: β Structure recognition (%); for β structure recognition (in words): comment on Table I
T1 construct: the amyloid β protein (purchased from Peptide Laboratory) was dissolved in a potassium phosphate buffer (pH7.4); purchased Peptide Laboratory
T1 sequence (P05067 672-711 limits assumed): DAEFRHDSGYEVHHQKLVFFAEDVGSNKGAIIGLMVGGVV
Procedure: (1) Method of Quantifying the Amyloid β Protein Having β Sheet Structure—method of Measuring of Recognition of β Structure in a Test Compound
Then, each 100 microliters of thioflavin T (which emits fluorescence depending on an extent of β structure of the amyloid β protein) dissolved in a glycine-NaOH buffer (pH 8.5) was added (final concentration 3 μM), and the fluorescence was immediately measured with a fluorescent microplate reader (manufactured by Molecular Device, Model fmax) at an excitation wavelength of 442 nm and a measurement wavelength of 485 nm. When the fluorescence of thioflavin alone was regarded as A, the fluorescence under the coexistence of the amyloid β protein and thioflavin T was regarded as B, and the fluorescence under the coexistence of the amyloid β protein, thioflavin T and a test compound was regarded as C, the recognition of β structure for the test compound was calculated by the following formula (unless otherwise indicated, the concentration of a test compound was 1 μM):
β structure recognition for test compound (%)={(B−C)/(B−A)}×100

[1] = Distribution coefficient between water/1-octanol; type: physicochemical; settings: for Distribution coefficient: 1-octanol / phosphate buffer (pH 7.3) or ultra-pure water; for Distribution coefficient (in words): comment on Table I
Procedure: As an oily phase, 1-octanol was used and, as an aqueous phase, a phosphate buffer (pH 7.3) or ultra-pure water was used. A suitable amount of a test compound was dissolved in an oily phase or an aqueous phase, and both phases were placed in the same test tube, and shaken vigorously at room temperature for 30 minutes. After allowing to stand at room temperature over 1 hour, centrifugation at 2000 rpm for 10 minutes was carried out, followed by further standing at room temperature for 1 hour. The aqueous phase and the oily phase were sampled, respectively, and transferred to a 96-well microplate. By using a microplate reader (manufactured by Molecular Device, Model Spectramax 250), the absorbance was measured at a maximum absorbing wavelength for each test compound, and the concentration of the test compound was calculated from a calibration curve previously obtained. A distribution coefficient was calculated by the following formula. Distribution coefficient for test compound =(concentration of test compound in oily phase)/(concentration of test compound in aqueous phase) As the distribution coefficient becomes larger, it can be said that the blood-brain barrier permeability for the test compound is higher.

Question: Which “β Structure recognition (%)” value (amyloid β protein) does the source give for `CCN(CC)c1ccc(/N=N/c2ccc(Br)cn2)c(O)c1` [BF-020] here?
Answer: 84.4%

Question: What does the source list for `CCN(CC)c1ccc(/N=C/c2ccc(N(CC)CC)cc2O)cc1` [BF-021]?
Answer: β Structure recognition (%) (amyloid β protein): 70.8%; Distribution coefficient [1]: 30; Distribution coefficient (in words) [1]: high distribution coefficients

Question: Which β structure recognition (%) at 1 µM (amyloid β protein) does the source give for `CN(C)c1ccc(/N=C2/C=CC(=O)c3ccccc32)cc1` [BF-022] here?
Answer: 27.8%

Question: For `CN(C)c1ccc(/C=N/c2ccc(O)cc2)cc1` [BF-033], which β structure recognition (%) at 1 µM (amyloid β protein) is on record?
Answer: 7.6%

Question: For `CCOc1ccc(/N=C/c2ccc(N(C)C)cc2)cc1.Cl` [BF-034], which “β Structure recognition (%)” value (amyloid β protein) is on record?
Answer: 19.7%

Question: With `CN(C)c1ccc(/C=N/c2ccc(F)cc2)cc1.Cl` [BF-035] as the compound, how does the “β Structure recognition (%)” value (amyloid β protein) read?
Answer: 5.6%

Question: With `CCN(CC)c1ccc(/N=N/c2ccc(N(C)C)cc2)c(NC(N)=O)c1` [BF-055] as the compound, how does the β structure recognition (%) at 1 µM (amyloid β protein) read?
Answer: 85%

Question: Which results are given for `CCN(CC)c1ccc(/C=C/c2cccc(/C=C/c3ccc(N(CC)CC)cc3)[n+]2C)cc1` [BF-064]?
Answer: β structure recognition (in words) (amyloid β protein): highly recognize β structure; β structure recognition (%) at 1 µM (amyloid β protein): 78.5%; Distribution coefficient [1]: 87; Distribution coefficient (in words) [1]: high distribution coefficients

Question: For `O.O.O.O.O.O=C([O-])c1cc(N=Nc2ccc(-c3ccc(N=Nc4ccc(O)c(C(=O)[O-])c4)cc3)cc2)ccc1O.[Na+].[Na+]` [Chrysamine G 2Na.5H2O, reference compound], which “β Structure recognition (%)” value (amyloid β protein) is on record?
Answer: 84.5%

Question: And the Distribution coefficient [1]?
Answer: 2.7

Question: Which β structure recognition (%) at 1 µM (amyloid β protein) does the source give for `CN(C)c1ccc(SSc2ccc(N(C)C)cc2)cc1` [Compound N-200] here?
Answer: 21.6%

Question: For `O=C(O)c1cc(/C=C/c2ccc(/C=C/c3ccc(O)c(C(=O)O)c3)cc2)ccc1O` [Compound X34, 1,4-bis[2-(3-carboxy-4-hydroxyphenyl)eten-yl]-benzene, reference compound], which β structure recognition (%) at 1 µM (amyloid β protein) is on record?
Answer: 73.9%

Question: And the Distribution coefficient [1]?
Answer: 3.4

Question: What does the source list for `O=C([O-])c1cc(/C=C/c2ccc(/C=C/c3ccc(O)c(C(=O)[O-])c3)cc2)ccc1O.[Na+].[Na+]` [Compound X34.2Na, reference compound]?
Answer: β Structure recognition (%) (amyloid β protein): 74.0%; Distribution coefficient [1]: 2.7

Question: With `CN(C)c1ccc(/N=N/c2ccc(S(=O)(=O)O)cc2)cc1` [SA-125, Methyl Orange] as the compound, how does the β structure recognition (%) at 1 µM (amyloid β protein) read?
Answer: 62.2%

Question: What about the Distribution coefficient [1] of the same compound?
Answer: 1

Question: With `CCN(CC)c1ccc(/N=N/c2ccccc2)cc1` [SA-134, 4-(diethylamino) azobenzene] as the compound, how does the β structure recognition (%) at 1 µM (amyloid β protein) read?
Answer: 65.4%

Question: For `Cc1cc(N(C)C)ccc1/N=N/c1ccccc1` [SA-135, 4-dimethylamino-2-methyl-azobenzene], which β structure recognition (%) at 1 µM (amyloid β protein) is on record?
Answer: 42.8%

Question: Which β structure recognition (%) at 1 µM (amyloid β protein) does the source give for `Nc1ccc(/N=N/c2ccccc2)cc1` [SA-138, 4-phenyl azoaniline HCl salt] here?
Answer: 35.9%

Question: For `Nc1ccc(/N=N/c2ccccc2)cc1` [SA-148, 4-phenyl azoaniline], which “β Structure recognition (%)” value (amyloid β protein) is on record?
Answer: 28.0%

Question: Which β structure recognition (%) at 1 µM (amyloid β protein) does the source give for `CCN(CC)c1ccc(/N=N/c2ccc(S(=O)(=O)O)cc2)cc1` [SA-163, Ethyl Orange Na salt] here?
Answer: 30.7%

Question: Which “β structure recognition (in words)” value (amyloid β protein) does the source give for `CC[n+]1c(/C=C/c2ccc(N(C)C)cc2)ccc2ccccc21` [SA-169, Quinaldine Red] here?
Answer: highly recognize β structure

Question: What about the β structure recognition (%) at 1 µM (amyloid β protein) of the same compound?
Answer: 91.9%

Question: What about the Distribution coefficient [1] of the same compound?
Answer: 18

Question: With `Nc1ccc(/N=N/c2ccc([N+](=O)[O-])cc2)cc1` [SA-180, Disprese Orange 3] as the compound, how does the β structure recognition (%) at 1 µM (amyloid β protein) read?
Answer: 58%

Question: With `CN(C)c1ccc(/N=N/c2ccc(S(=O)(=O)Cl)cc2)cc1` [SA-188, 4-(dimethylamino) azobenzene-4′-sulfonylchloride] as the compound, how does the β structure recognition (%) at 1 µM (amyloid β protein) read?
Answer: 62.7%

Question: With `Nc1ccc(/N=N/c2cccc3ccccc23)c(N)c1` [SA-201, Fat Brown RR] as the compound, how does the β structure recognition (%) at 1 µM (amyloid β protein) read?
Answer: 73%

Question: With `CC[n+]1ccccc1/C=C/c1ccc(N(C)C)cc1` [SA-212, 2-(4-(dimethylamino)stylyl)-1-ethyl pyridinium iodide] as the compound, how does the β structure recognition (%) at 1 µM (amyloid β protein) read?
Answer: 46%

Question: With `CN(C)c1ccc(C=Cc2cccc[n+]2C)cc1.[I-]` [SA-213, 2-(4-(dimethylamino)stylyl)-1-methyl pyridinium iodide] as the compound, how does the “β Structure recognition (%)” value (amyloid β protein) read?
Answer: 50.7%

Question: For `CN(C)c1ccc(N=Nc2ccccn2)cc1` [SA-215, 4-(2-pyridylazo)-N,N-dimethylaniline], which “β structure recognition (in words)” value (amyloid β protein) is on record?
Answer: relatively high recognition of β structure

Question: What about the β structure recognition (%) at 1 µM (amyloid β protein) of the same compound?
Answer: 69.1%

Question: And the Distribution coefficient [1]?
Answer: >100

Question: What about the “Distribution coefficient (in words)” value [1] of the same compound?
Answer: highest distribution coefficient

Question: Which “β structure recognition (in words)” value (amyloid β protein) does the source give for `CN(C)c1ccc(/C=C/c2ccc3ccccc3[n+]2C)cc1` [SA-245, 2-(4-(dimethylamino)stylyl)-1-methyl quinolinium iodide] here?
Answer: highly recognize β structure

Question: And the β structure recognition (%) at 1 µM (amyloid β protein)?
Answer: 86.9%

Question: What about the Distribution coefficient [1] of the same compound?
Answer: 10

Question: Which “β Structure recognition (%)” value (amyloid β protein) does the source give for `CN(C)c1ccc(C=Cc2cccc[n+]2C)cc1.[I-]` [SA-247, 2-(4-(dimethylamino)stylyl)-1-metyl pyridinium iodide] here?
Answer: 19.5%

Question: With `Nc1ccc(SSc2ccc(N)cc2)cc1` [SA-260, 4-aminophenyldisulfide] as the compound, how does the “β structure recognition (in words)” value (amyloid β protein) read?
Answer: highly recognize β structure

Question: And the β structure recognition (%) at 1 µM (amyloid β protein)?
Answer: 83.1%

Question: With `CN(C)c1ccc(/C=C/c2ccccn2)cc1` [SA-271] as the compound, how does the β structure recognition (%) at 1 µM (amyloid β protein) read?
Answer: 53%

Question: With `Nc1ccc(/C=C/c2ccc(N)cc2)cc1` [SA-324, 4,4′-diaminostylbene (2HCl salt)] as the compound, how does the β structure recognition (%) at 1 µM (amyloid β protein) read?
Answer: 36%

Question: With `Nc1c(SSc2ccc3ccccc3c2N)ccc2ccccc12` [SA-366, 2,2′-dithiobis(1-naphthylamine)] as the compound, how does the β structure recognition (%) at 1 µM (amyloid β protein) read?
Answer: 43.3%

Question: With `CN(C)c1ccc(N=Nc2ccc(N)cc2Cl)cc1` [SA-376, Disperse Black 7] as the compound, how does the β structure recognition (%) at 1 µM (amyloid β protein) read?
Answer: 35.7%

Question: Which β structure recognition (%) at 1 µM (amyloid β protein) does the source give for `CCOc1ccc(/N=C/c2ccc(N(C)C)cc2)cc1` [SA-399, N-(4-(dimethylamino)benzylidene)-p-phenetidine] here?
Answer: 23.1%

Question: With `CN(C)c1ccc(/C=N/c2ccc(F)cc2)cc1` [SA-407, N-(4-(dimethylamino)benzylidene)-4-fluoroaniline] as the compound, how does the β structure recognition (%) at 1 µM (amyloid β protein) read?
Answer: 6.8%

Question: For `CCc1ccc(/N=C/c2ccc(N(C)C)cc2)cc1` [SA-408, N-(4-(dimethylamino)benzylidene)-4-ethylaniline], which β structure recognition (%) at 1 µM (amyloid β protein) is on record?
Answer: 7.9%

Question: With `COc1cc(N=Nc2ccc(N)cc2)c(C)cc1N` [SA-419, 4,4′diamino-5-methoxy-2-methyl azobenze] as the compound, how does the β structure recognition (%) at 1 µM (amyloid β protein) read?
Answer: 38.4%

Question: Which results are given for `CCN(CC)c1ccc(N=Nc2ccc(N(C)C)cc2)c(NC(N)=O)c1` [SA-420, 4-(diethylamino)-4′-(dimethylamino)-2-(ureido)azobenzene]?
Answer: β structure recognition (in words) (amyloid β protein): highly recognize β structure; β structure recognition (%) at 1 µM (amyloid β protein): 71.6%

Question: For `CCN(CC)c1ccc(/C=C/c2cc[n+](C)cc2)cc1` [SA-445], which β structure recognition (%) at 1 µM (amyloid β protein) is on record?
Answer: 71.2%

Question: For `CN(C)c1ccc(/N=N/c2ccc(NC(=O)CI)cc2)cc1` [SA-446, N-(4-dimethylamino) azobenzene-4′-iodoacetamide], which β structure recognition (%) at 1 µM (amyloid β protein) is on record?
Answer: 52.4%

Question: With `CN(C)c1ccc(/N=N/c2ccc(N)cc2)cc1` [SA-512, N,N-dimethyl-4,4′-azodianiline] as the compound, how does the β structure recognition (%) at 1 µM (amyloid β protein) read?
Answer: 68.2%

Question: With `CN(C)c1ccc(/N=N/c2ccc(C(=O)O)cc2)cc1` [SA-606] as the compound, how does the β structure recognition (%) at 1 µM (amyloid β protein) read?
Answer: 53.5%

Question: With `CN(C)c1ccc(/C=N/c2cc3c(ccc4ccccc43)cn2)cc1` [SA-672, benzo(F) isoquinoline-2-yl-(4-dimethylaminobenzylidene)-amine] as the compound, how does the β structure recognition (%) at 1 µM (amyloid β protein) read?
Answer: 39.3%

Question: For `CCN(CC)c1ccc(/C=N/c2ccccc2)cc1` [SA-757, N-(4-(diethylamino)benzylidene) aniline], which β structure recognition (%) at 1 µM (amyloid β protein) is on record?
Answer: 33.9%

Question: For `CN(C)c1ccc(/N=C/c2ccccc2)cc1` [SA-758, N-benzylidene-N′,N′-dimethylbenzene-1,4-diamine], which β structure recognition (%) at 1 µM (amyloid β protein) is on record?
Answer: 46.5%

Question: For `CN(C)c1ccc(/C=C/c2ccc3ccccc3n2)cc1` [SA-770, 2-(4-(dimethylamino)stylyl) quinoline], which β structure recognition (%) at 1 µM (amyloid β protein) is on record?
Answer: 25.4%

Source: patent US20030138374A1, “Image diagnosis probe based on substituted azobenzene or analogue thereof for disease attributable to amyloid accumulation and composition for image diagnosis containing the same” (priority 2000, published 2003)
